Reference: US11613531B2, “Inhibitors of RHO associated coiled-coil containing protein kinase” (Kadmon Corporation, LLC, priority 2017, dated 2023)
Read-outs that look alike come from different tables or passages of the source.

What was measured:
[1] = test system: ppMlc (T18/S19) levels in A7R5 cells; test: A7R5 in-cell ELISA (pMLC); type: cell-based, Rat; conditions: Rattus norvegicus, A7R5, A7R5 cells; for inhibition at 1 µM: 1 μM compound; for inhibition at 1 µM / inhibition at 10 µM: read-out: pMLC % inh A7R5 @ [conc]; for inhibition at 10 µM: 10 μM compound; for IC50: ppMlc (T18/S19)
Method in brief: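 Cellular IC50 came from a nonlinear regression fit of ppMlc (T18/S19) signal, read by colorimetric in-cell ELISA on fixed cells. Rat A7R5 aortic smooth muscle cells had been exposed for 90 min to compounds in 9-point 2-fold serial dilution, 24 h after seeding.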

[2] = target: Recombinant ROCK2 (amino acids 1-552) (Homo sapiens (Human), UniProt O75116); test: Z′-Lyte kinase assay, ROCK2; type: biochemical; conditions: for inhibition at 1 µM: 1 μM compound, read-out: ROCK2 % inh. @ [conc]
Sequence of Recombinant ROCK2 (amino acids 1-552) (O75116 1-552): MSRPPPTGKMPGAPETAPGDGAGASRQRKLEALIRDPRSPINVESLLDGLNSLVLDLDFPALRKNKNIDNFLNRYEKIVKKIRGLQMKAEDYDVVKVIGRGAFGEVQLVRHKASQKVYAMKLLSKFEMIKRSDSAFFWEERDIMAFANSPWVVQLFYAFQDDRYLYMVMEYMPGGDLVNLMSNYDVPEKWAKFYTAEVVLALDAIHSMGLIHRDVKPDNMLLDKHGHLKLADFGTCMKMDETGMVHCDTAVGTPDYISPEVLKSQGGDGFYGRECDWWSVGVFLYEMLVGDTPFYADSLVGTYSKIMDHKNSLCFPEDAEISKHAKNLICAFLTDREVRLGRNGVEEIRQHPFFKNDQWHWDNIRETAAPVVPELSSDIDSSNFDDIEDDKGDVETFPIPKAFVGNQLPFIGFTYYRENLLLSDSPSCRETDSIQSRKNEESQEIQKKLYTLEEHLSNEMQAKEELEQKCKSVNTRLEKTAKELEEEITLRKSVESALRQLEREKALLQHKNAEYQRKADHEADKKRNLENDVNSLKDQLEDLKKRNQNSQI
Experimental: Determination of Compound's ROCK Inhibitory Activity In Vitro (Z'Lyte Assay).
Recombinant ROCK1 (amino acids 1-535) and ROCK2 (amino acids 1-552) proteins were purchased from ThermoFisher Scientific. Compound's activities were measured by Z′-lyte kinase kit (ThermoFisher Scientific) and IC50 was calculated
In vitro activities for the compounds were measured with Z′-lyte kinase kit (ThermoFisher Scientific). The percent inhibition rate was calculated by normalizing the kinase activity value obtained with 1 μM compound treatment against DMSO control value and then applied to the formula, [1-(compound/DMSO)]×100%. IC50s were calculated using the nonlinear regression curve fit function of the GraphPad Prism software with kinase activities data measured with 9 points 2-fold serial dilution of compounds treatment. In cell pMLC IC50s were calculated with data obtained from A7R5 cell experiments. A7R5 cells were treated with 9 points 2-fold serial dilution of compounds and ppMlc (T18/S19) levels were determined to calculate cellular IC50 values of the compounds using the nonlinear regression curve fit function of the GraphPad Prism software. NIH3T3 cells stably expressing ACTA2-promoter-driven-luciferase were applied to measure ROCK compounds functional IC50s in cells. Cells were plated in 96 well plates to confluence and treated with 9 points serial dilution of compounds in combination with TGFβ1 for 24 hr. Luciferase activities were measured and compound's IC50s were calculated using the nonlinear regression curve fit function of the GraphPad Prism software.

Row | Compound | inhibition at 1 µM [1] [%] | inhibition at 1 µM [2] [%] | inhibition at 10 µM [1] [%] | IC50 [1] [nM] | IC50 ([2]; 9 points 2-fold serial dilution) [nM] | IC50 [2] [nM]
1 | c1ccc2c(c1)C(C1CCCNC1)CN2c1nccc(Nc2ccc3[nH]ncc3c2)n1 (stereo not drawn) [Example 89, N-(2-(3-(piperidin-3-yl)indolin-1-yl)pyrimidin-4-yl)-1H-indazol-5-amine] | 20.1 | 12.7 | – | – | – | –
2 | CC1CN(c2ncc(Cl)c(Nc3ccc4[nH]ncc4c3)n2)CCCN1 (stereo not drawn) [Example 90, N-(5-chloro-2-(3-methyl-1,4-diazepan-1-yl)pyrimidin-4-yl)-1H-indazol-5-amine] | – | 73.8 | 54.2 | 2200 | – | –
3 | Cc1cnc(N2CCNC(C)C2)nc1Nc1ccc2[nH]ncc2c1 (stereo not drawn) [Example 91, N-(5-methyl-2-(3-methylpiperazin-1-yl)pyrimidin-4-yl)-1H-indazol-5-amine] | – | 47.9 | 46.7 | – | – | –
4 | Cc1cnc(N2CCNCC2)nc1Nc1ccc2[nH]ncc2c1 [Example 95, N-(5-methyl-2-(piperazin-1-yl)pyrimidin-4-yl)-1H-indazol-5-amine] | – | 61 | 46.7 | – | – | –
5 | CCC1CCN(c2ncc(C)c(Nc3ccc4[nH]ncc4c3)n2)CCN1 (stereo not drawn) [Example 96, N-(2-(5-ethyl-1,4-diazepan-1-yl)-5-methylpyrimidin-4-yl)-1H-indazol-5-amine] | – | 27.2 | 14.3 | – | – | –
6 | Cc1cnc(N2CCNCC2C)nc1Nc1ccc2[nH]ncc2c1 (stereo not drawn) [Example 97, N-(5-methyl-2-(2-methylpiperazin-1-yl)pyrimidin-4-yl)-1H-indazol-5-amine] | – | 54 | 52.5 | 2340 | – | –
7 | Cc1cnc(N2CC(C)NC(C)C2)nc1Nc1ccc2[nH]ncc2c1 (stereo not drawn) [Example 98, N-(2-(3,5-dimethylpiperazin-1-yl)-5-methylpyrimidin-4-yl)-1H-indazol-5-amine] | – | 0 | 17.4 | – | – | –
8 | Cc1cnc(N2CCNC(C)CC2)nc1Nc1ccc2[nH]ncc2c1 (stereo not drawn) [Example 100, N-(5-methyl-2-(5-methyl-1,4-diazepan-1-yl)pyrimidin-4-yl)-1H-indazol-5-amine] | – | 47.5 | 46.4 | – | – | –
9 | Cc1cnc(N2CCCNC(C)C2)nc1Nc1ccc2[nH]ncc2c1 (stereo not drawn) [Example 102, N-(5-methyl-2-(3-methyl-1,4-diazepan-1-yl)pyrimidin-4-yl)-1H-indazol-5-amine] | – | 48.5 | 43.5 | – | 1100 | –
10 | Cc1cnc(N2CCCNCC2C)nc1Nc1ccc2[nH]ncc2c1 (stereo not drawn) [Example 104, N-(5-methyl-2-(2-methyl-1,4-diazepan-1-yl)pyrimidin-4-yl)-1H-indazol-5-amine] | 31.6 | 82.9 | – | 997 | – | –
11 | CCC1CNCCCN1c1ncc(C)c(Nc2ccc3[nH]ncc3c2)n1 (stereo not drawn) [Example 105, N-(2-(2-ethyl-1,4-diazepan-1-yl)-5-methylpyrimidin-4-yl)-1H-indazol-5-amine] | 15.1 | 53.9 | – | – | – | –
12 | CCC1CN(c2ncc(C)c(Nc3ccc4[nH]ncc4c3)n2)CCCN1 (stereo not drawn) [Example 106, N-(2-(3-ethyl-1,4-diazepan-1-yl)-5-methylpyrimidin-4-yl)-1H-indazol-5-amine] | 12.8 | 34.1 | – | – | – | –
13 | Cc1cnc(N2C3CCC2CNC3)nc1Nc1ccc2[nH]ncc2c1 [Example 107, N-(2-(3,8-diazabicyclo[3.2.1]octan-8-yl)-5-methylpyrimidin-4-yl)-1H-indazol-5-amine] | 26 | 98.3 | – | – | – | –
14 | CCC1CCN(c2nc(C)cc(Nc3ccc4[nH]ncc4c3)n2)CCN1 (stereo not drawn) [Example 109, N-(2-(5-ethyl-1,4-diazepan-1-yl)-6-methylpyrimidin-4-yl)-1H-indazol-5-amine] | – | 68.4 | 52.3 | 1880 | – | –
15 | Cc1cc(Nc2ccc3[nH]ncc3c2)nc(N2CCCNC(C(C)C)C2)n1 (stereo not drawn) [Example 110, N-(2-(3-isopropyl-1,4-diazepan-1-yl)-6-methylpyrimidin-4-yl)-1H-indazol-5-amine] | – | 67.5 | 50.9 | 1390 | – | –
16 | Cc1cc(Nc2ccc3[nH]ncc3c2)nc(N2CCNC(C(C)C)CC2)n1 (stereo not drawn) [Example 111, N-(2-(5-isopropyl-1,4-diazepan-1-yl)-6-methylpyrimidin-4-yl)-1H-indazol-5-amine] | – | 31.8 | 44 | – | – | –
17 | Cc1cc(Nc2ccc3[nH]ncc3c2)nc(N2CC(C)NC(C)C2)n1 (stereo not drawn) [Example 113, N-(2-(3,5-dimethylpiperazin-1-yl)-6-methylpyrimidin-4-yl)-1H-indazol-5-amine] | – | 58.1 | 47.5 | 2880 | – | –
18 | CCC1CN(c2nc(C)cc(Nc3ccc4[nH]ncc4c3)n2)CCN1 (stereo not drawn) [Example 114, N-(2-(3-ethylpiperazin-1-yl)-6-methylpyrimidin-4-yl)-1H-indazol-5-amine] | – | 82 | 48.7 | – | – | –
19 | Cc1cc(Nc2ccc3[nH]ncc3c2)nc(N2CCNC(C(C)C)C2)n1 (stereo not drawn) [Example 115, N-(2-(3-isopropylpiperazin-1-yl)-6-methylpyrimidin-4-yl)-1H-indazol-5-amine] | – | 64.2 | 48.2 | – | – | –
20 | Cc1cc(Nc2ccc3[nH]ncc3c2)nc(N2CCNC(C)CC2)n1 (stereo not drawn) [Example 116, N-(6-methyl-2-(5-methyl-1,4-diazepan-1-yl)pyrimidin-4-yl)-1H-indazol-5-amine] | – | 81.9 | 51.6 | 1020 | – | –
21 | Cc1cc(Nc2ccc3[nH]ncc3c2)nc(N2CC3CCC(C2)N3)n1 [Example 119, N-(2-(3,8-diazabicyclo[3.2.1]octan-3-yl)-6-methylpyrimidin-4-yl)-1H-indazol-5-amine] | 17.7 | 90.1 | – | – | – | –
22 | Cc1cc(Nc2ccc3[nH]ncc3c2)nc(N2CC3CC(C2)N3)n1 [Example 120, N-(2-(3,6-diazabicyclo[3.1.1]heptan-3-yl)-6-methylpyrimidin-4-yl)-1H-indazol-5-amine] | 23.4 | 93.1 | – | – | – | –
23 | Cc1cc(Nc2ccc3[nH]ncc3c2)nc(N2CC3CNCC(C3)C2)n1 [Example 130, N-(2-(3,7-diazabicyclo[3.3.1]nonan-3-yl)-6-methylpyrimidin-4-yl)-1H-indazol-5-amine] | 27.7 | 93.4 | – | – | – | –
24 | Cc1cc(Nc2ccc3[nH]ncc3c2)nc(N2CCC3NCCC3C2)n1 (stereo not drawn) [Example 131, N-(6-methyl-2-(octahydro-5H-pyrrolo[3,2-c]pyridin-5-yl)pyrimidin-4-yl)-1H-indazol-5-amine] | 12.7 | 74.1 | – | – | – | –
25 | Cc1cc(Nc2ccc3[nH]ncc3c2)nc(N2CCC3CNCC3CC2)n1 (stereo not drawn) [Example 132, N-(6-methyl-2-(octahydropyrrolo[3,4-d]azepin-6(1H)-yl)pyrimidin-4-yl)-1H-indazol-5-amine] | 19.6 | 81.8 | – | – | – | 245
26 | Cc1cc(Nc2ccc3[nH]ncc3c2)nc(N2CCN3CCNCC3C2)n1 (stereo not drawn) [Example 133, N-(6-methyl-2-(octahydro-2H-pyrazino[1,2-a]pyrazin-2-yl)pyrimidin-4-yl)-1H-indazol-5-amine] | 3.1 | 15.2 | – | – | – | –
27 | Cc1cc(Nc2ccc3[nH]ncc3c2)nc(N2CC3CNC3C2)n1 (stereo not drawn) [Example 134, N-(2-(3,6-diazabicyclo[3.2.0]heptan-3-yl)-6-methylpyrimidin-4-yl)-1H-indazol-5-amine] | 29.9 | – | – | – | – | 11
